# Experimental data from paper PMC13168289, “Potent acridone antimalarial against all three life stages of Plasmodium” (Nature Communications, 2026).
# Read-outs that look alike come from different tables or passages of the source.
# Key:
# [1] = cytotoxicity against HepG2 cells; type: cell-based; settings: human, HepG2 cells; read-out: inhibition IC50 vs HepG2
# Description: Cytotoxicity was evaluated in human HepG2 liver cells, using an MTT assay. Briefly, HepG2 cells were cultured in complete Dulbecco’s modified Eagle’s medium (DMEM; Gibco-Invitrogen, No. 11995-065) prepared by supplementing DMEM with 10% heat inactivated FBS (Gibco-Invitrogen, No. 16000-036), 100 units/mL penicillin, and 100 µg/mL streptomycin. Cell viability was assessed using trypan blue. Ninety-six-well plates were seeded with 2 × 10^4 cells per well and incubated at 37 °C overnight in a humidified 5% CO2 atmosphere. Test compound plates were prepared with an INTEGRA assist plus station and 96-well plates containing 11 duplicate 2-fold serial dilutions of test compound suspended in DMSO. The diluted test compound was then added to the corresponding well preseeded with HepG2 cells. […] After incubation, 20 µL of a 0.1 mg/mL solution of resazurin diluted in PBS was added to each well, and all plates were subsequently incubated for 3–4 h in an incubator. Absorbance was determined with the Molecular Devices SpectraMax plate reader. Three independent experiments, each in duplicate, were performed, and the IC50 values were determined using GraphPad Prism software (Version 10) using the non-linear regression equation (sigmoidal dose-response, variable slope).
# [2] = system: P. cynomolgi hypnozoites and schizonts; parameters: method as in PMID: 21483865; settings: primary hepatocyte P. cynomolgi assays; ref PMID: 21483865; read-out: in vitro liver-stage IC50; cited from earlier work
# [3] = system: P. falciparum K13 mutant parasites SP045 and SP060; test: Growth, Resistance, and Recovery Assay (GRRA), ring-stage survival dose-response; type: cell-based, Plasmodium falciparum; settings: read-out: GRRA50
# Description: These isolates carry the validated R561H Kelch 13 propeller domain mutation associated with delayed parasite clearance in East Africa[24],[25]. Using the 6-hour GRRA[23], all strains were thawed, frozen, and cultured under standard conditions at 5% hematocrit. Samples parasitemia was measured by flow cytometry. Parasite cultures that were predominantly segmented schizonts were synchronized using a single Percoll layer method. Cultures that met quality control requirements of ≥70% early ring stage and ≥1% parasitemia were adjusted to 0.25% parasitemia at 2% hematocrit. […] The GRRA50 implements 11 RSA experiments to generate a dose-response curve for each parasite line per drug. Master mixes of samples were aliquoted into 2 technical replicates of 275 µL each in 96 well plates (2 treated each condition, 2 untreated). At 6 h post-exposure, 200 µL of media was removed from the wells and replaced with 200 µL of incomplete media and spun for 3 min at 800 g to rinse. The rinse was repeated a total of 3 times, after which 200 µL complete media was added back to the wells. At 120 h post-treatment, thin microscopy smears were made using 2 µL of culture for each sample and 20 µL of culture was transferred to PCR strips and stored at −80 °C until qPCR quantification. A standard curve of known parasitemia was generated using the NF54 parasite line for each qPCR quantification for conversion from Cycle threshold (Ct) to parasitemia and comparison between qPCR experiments. Replicate viability was calculated according to the GRRA method. Each individual reaction mixture and cycling conditions were set to previously used methods. Ct was calculated using AB1 SDA 2.4.1. software. […] We find that commonly reported thresholds (cutoffs) for resistance (e.g., 1% survival in traditional RSA) may not be broadly applicable, especially with lower thresholds subject to potential artifacts due to markedly low survival rates of ART-sensitive and low-level ART-resistant parasites. Regular RSA relies on a single drug concentration, 700 nM. To gain a more fine-scale quantification to compare drug susceptibilities with relevance to therapeutic success and failure, we developed the GRRA50 to generate full dose-response curves for precise quantitative comparisons.
# [4] = system: P. falciparum Dd2, DR1 and DR4; test: SYBR Green 72 h drug susceptibility assay against ART-resistant clones; type: cell-based, Plasmodium falciparum
# Description: Drug susceptibility assay against ART-resistant P. falciparum clones was performed using a SYBR Green-based assay[44],[74]. Synchronized ring stage parasites were cultured for 72 h in the presence of the test drug. The assay was performed in 96-well plates at 2% hematocrit and 0.5% starting parasitemia. Each experiment was conducted in triplicate and repeated with three biological replicates. Parasite growth at 72 h was quantified via SYBR Green I staining. The obtained counts were plotted against the logarithm of the compound concentration, and a curve was fitted with non-linear regression (sigmoidal dose-response/variable slope equation) to determine IC50 (half-maximal inhibitory concentration) values. The data was analyzed using GraphPad Prism software 8.0.
# [5] = system: Salmonella typhimurium TA98 and TA100; test: Ames assay; type: cell-based; settings: 10 µM; TA98 and TA100, with and without S9 activation
# Description: Mutagenicity was assessed using the Ames assay[54] (EBPI, Ontario, Canada) against S. typhimurium TA100 and TA98, with and without S9 activation. The tester strain S. typhimurium (TA100 and TA98) cultures were inoculated from the lyophilized pellets and grown in nutrient broth provided by EBPI. Each inoculated vial (5 mL volume with antibiotics) was placed overnight in the incubator at 37 °C. The positive controls for the assay were 1.0 µg/µL 2-aminoanthracene (2-AA) for incubations with the S9 mix and 5 µg/mL sodium azide (NaN3, used for TA100) and 300 µg/mL 2-nitrofluorene (2NF, used for TA98) for incubations without the S9 mix. […] An aliquot (0.2 mL) of the mixture was then added to each well of a 96-well plate. The 96-well plates were covered, sealed in zip-lock bags, and incubated for 5 days at 37 °C. Plates were scored visually, and the positive wells against background mutations were statistically analyzed.
# [6] = maximum tolerated dose (MTD) study, single oral dose; type: in vivo, Sprague Dawley rats; settings: oral gavage, male and female rats
# Description: (§1) In vivo toxicology and TK studies in rats were performed at SRI International, using the well-established methods[83]–[85]. Rats were housed in microisolator cages with hardwood chip bedding (Sani-Chips; Envigo Teklad) and maintained on a 12 h light/dark cycle. Environmental conditions were controlled at 20–26 °C (68–79 °F) with 30–70% relative humidity. […] Male and female Sprague Dawley outbred rats were randomly assigned to treatment and control groups using a simple randomization procedure to ensure a balanced distribution of baseline weights across all cohorts. […] For TK studies, blood was collected from animals at 6 time points post dose on Day 1 (0.5, 1, 2, 4, 8, and 24 h) and on Day 7 (0.5, 2, 8, 24, 48, and 96 h). Drug levels were determined in collected plasma samples using bioanalytical method developed at SRI. The plasma drug level data were analyzed using Phoenix WinNonlin (version 8.3) software to perform noncompartmental data analysis.
# [7] = 7-day repeat dose toxicology study; type: in vivo, Sprague Dawley rats; settings: 25, 100, 400 mg/kg daily oral for 7 days
# Description: as §1
Structure (SMILES),IC50 at 24 h [1] [nM],IC50 [2] [nM],"IC50 ([3]; SP045 (K13 V555A, ART-S)) [nM]","IC50 ([3]; SP060 (K13 R561H, ART-R)) [nM]",IC50 ([4]; DR1 (ART-R)) [nM],IC50 ([4]; Dd2) [nM],Ames test result [5],single dose MTD [6],tolerability [7]
"O=C1C(O)=C([C@H]2CC[C@H](c3ccc(Cl)cc3)CC2)C(=O)c2ccccc21 [ATV, atovaquone]",61200,~2000,,,,,,,
O=c1c2ccc(Oc3ccc(OC(F)(F)F)cc3)cc2[nH]c2cc(Cl)cc(F)c12 [T111],,,0.78,0.87,0.11,0.028,negative,greater than 400 mg/kg,"well tolerated, albeit with minor clinical signs"
